Reference: ChEMBL document CHEMBL1201862, “PubChem BioAssay data set” (2004)
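Results reflect a 48-hour exposure of cells in 96-well plates to compound at five concentrations. At the GI50, growth is halved.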 Active and inactive are the calls of the source. Cut-off read from the data, not from the text of the source: active = GI50 up to about 1.1 µM and inactive = higher.

Key:
Experiment in all cases: growth of human tumour cells (NCI), 48 h
[1] = test system: 786-0
[2] = test system: A498
[3] = test system: A549
[4] = test system: ACHN
[5] = test system: CAKI-1
[6] = test system: CCRF-CEM
[7] = test system: COLO 205
[8] = test system: DLD-1
[9] = test system: DMS-114
[10] = test system: DMS-273
[11] = test system: EKVX
[12] = test system: HCC 2998
[13] = test system: HCT-116
[14] = test system: HCT-15
[15] = test system: HL-60
[16] = test system: HOP-18
[17] = test system: HOP-62
[18] = test system: HOP-92
[19] = test system: HT-29
[20] = test system: IGROV-1
[21] = test system: K562
[22] = test system: KM-20L2
[23] = test system: KM12
[24] = test system: LOX IMVI
[25] = test system: LXFL 529
[26] = test system: M14
[27] = test system: M19-MEL
[28] = test system: MOLT-4
[29] = test system: Malme-3M
[30] = test system: NCI-H226
[31] = test system: NCI-H23
[32] = test system: NCI-H460
[33] = test system: NCI-H522
[34] = test system: OVCAR-3
[35] = test system: OVCAR-4
[36] = test system: OVCAR-5
[37] = test system: OVCAR-8
[38] = test system: RPMI-8226
[39] = test system: RXF 393
[40] = test system: SF-268
[41] = test system: SF-295
[42] = test system: SF-539
[43] = test system: SK-MEL-28
[44] = test system: SK-MEL-2
[45] = test system: SK-MEL-5
[46] = test system: SK-OV-3
[47] = test system: SN12C
[48] = test system: SNB-19
[49] = test system: SNB-75
[50] = test system: SNB-78
[51] = test system: SR
[52] = test system: SW-620
[53] = test system: TK-10
[54] = test system: U-251
[55] = test system: UACC-257
[56] = test system: UACC-62
[57] = test system: UO-31
[58] = test system: XF498

With CC(=O)NC1=C(C)C(=O)c2c(nc3n2CCC3O)C1=O (centres undefined) the GI50 [1] was 43.4 µM (inactive), the GI50 [2] was > 100 µM (inactive) and the GI50 [3] was > 64 µM (inactive). For the same molecule, the GI50 [4] was > 100 µM (inactive), the GI50 [5] was > 100 µM (inactive) and the GI50 [6] was 4.24 µM (inactive). For the same molecule, the GI50 [7] was > 100 µM (inactive), the GI50 [8] was 39.5 µM (inactive) and the GI50 [9] was 5.56 µM (inactive). For the same molecule, the GI50 [10] was 44.8 µM (inactive), the GI50 [11] was 24.7 µM (inactive) and the GI50 [12] was 54 µM (inactive). For the same molecule, the GI50 [13] was 23.7 µM (inactive), the GI50 [14] was greater than 100 µM and the GI50 [15] was 8.28 µM (inactive). For the same molecule, the GI50 [16] was > 100 µM (inactive), the GI50 [17] was > 100 µM (inactive) and the GI50 [18] was 18.6 µM (inactive). For the same molecule, the GI50 [19] was > 100 µM (inactive), the GI50 [20] was > 54.2 µM (inactive) and the GI50 [21] was 19.1 µM (inactive). For the same molecule, the GI50 [22] was > 72.1 µM (inactive), the GI50 [23] was > 100 µM (inactive) and the GI50 [24] was 29.7 µM (inactive). The GI50 [25] was 19.6 µM (inactive), the GI50 [26] was > 100 µM (inactive) and the GI50 [27] was 25.6 µM (inactive). For the same molecule, the GI50 [28] was 3.44 µM (inactive), the GI50 [29] was 19.1 µM (inactive) and the GI50 [30] was 27.4 µM (inactive). For the same molecule, the GI50 [31] was 35.4 µM (inactive), the GI50 [32] was > 87.7 µM (inactive) and the GI50 [33] was 23.7 µM (inactive). For the same molecule, the GI50 [34] was 10.8 µM (inactive), the GI50 [35] was 13.6 µM (inactive) and the GI50 [36] was > 64.3 µM (inactive). The GI50 [37] was 20.4 µM (inactive), the GI50 [38] was 18.2 µM (inactive) and the GI50 [39] was 21.5 µM (inactive). For the same molecule, the GI50 [40] was 34.8 µM (inactive), the GI50 [41] was > 100 µM (inactive) and the GI50 [42] was 24.4 µM (inactive). The GI50 [43] was > 76.4 µM (inactive), the GI50 [44] was 19.5 µM (inactive) and the GI50 [45] was 51.9 µM (inactive). The GI50 [46] was > 61.7 µM (inactive), the GI50 [47] was 37.3 µM (inactive) and the GI50 [48] was > 100 µM (inactive). The GI50 [49] was > 100 µM (inactive), the GI50 [50] was 31.3 µM (inactive) and the GI50 [51] was 9.46 µM (inactive). The GI50 [52] was 44.4 µM (inactive), the GI50 [53] was > 100 µM (inactive) and the GI50 [54] was 33.1 µM (inactive). The GI50 [55] was 26.3 µM (inactive), the GI50 [56] was 20.1 µM (inactive) and the GI50 [57] was > 100 µM (inactive). The GI50 [58] was 18.2 µM (inactive).

O=C1c2ccccc2S[C@@H](O)[C@@H]2CCCN12 was tested, and the GI50 [1] was > 100 µM (inactive), the GI50 [3] was > 100 µM (inactive) and the GI50 [4] was > 100 µM (inactive). For the same molecule, the GI50 [6] was > 100 µM (inactive), the GI50 [7] was > 100 µM (inactive) and the GI50 [8] was > 100 µM (inactive). For the same molecule, the GI50 [9] was > 100 µM (inactive), the GI50 [10] was > 100 µM (inactive) and the GI50 [11] was > 100 µM (inactive). The GI50 [12] was > 100 µM (inactive), the GI50 [13] was > 100 µM (inactive) and the GI50 [14] was greater than 100 µM. For the same molecule, the GI50 [15] was > 100 µM (inactive), the GI50 [16] was > 100 µM (inactive) and the GI50 [17] was > 100 µM (inactive). The GI50 [18] was > 100 µM (inactive), the GI50 [20] was 21.9 µM (inactive) and the GI50 [21] was > 100 µM (inactive). The GI50 [22] was > 100 µM (inactive), the GI50 [23] was > 100 µM (inactive) and the GI50 [24] was > 100 µM (inactive). The GI50 [25] was > 100 µM (inactive), the GI50 [26] was > 100 µM (inactive) and the GI50 [27] was > 100 µM (inactive). The GI50 [28] was > 100 µM (inactive), the GI50 [29] was > 100 µM (inactive) and the GI50 [31] was > 100 µM (inactive). For the same molecule, the GI50 [32] was > 100 µM (inactive), the GI50 [33] was > 100 µM (inactive) and the GI50 [34] was > 100 µM (inactive). The GI50 [36] was > 100 µM (inactive), the GI50 [37] was > 100 µM (inactive) and the GI50 [38] was > 100 µM (inactive). For the same molecule, the GI50 [39] was > 100 µM (inactive), the GI50 [40] was > 100 µM (inactive) and the GI50 [41] was > 100 µM (inactive). For the same molecule, the GI50 [42] was > 100 µM (inactive), the GI50 [43] was > 100 µM (inactive) and the GI50 [44] was > 100 µM (inactive). The GI50 [45] was > 100 µM (inactive), the GI50 [46] was 35.2 µM (inactive) and the GI50 [47] was > 100 µM (inactive). The GI50 [48] was > 100 µM (inactive), the GI50 [50] was > 100 µM (inactive) and the GI50 [51] was > 100 µM (inactive). The GI50 [52] was > 100 µM (inactive), the GI50 [53] was > 100 µM (inactive) and the GI50 [54] was > 100 µM (inactive). For the same molecule, the GI50 [55] was > 100 µM (inactive), the GI50 [56] was 47.9 µM (inactive) and the GI50 [57] was > 100 µM (inactive). The GI50 [58] was 39.6 µM (inactive).

In the case of Clc1ccc(C[P+]2(c3ccccc3)CCCCC2)cc1.[O-][Cl+3]([O-])([O-])[O-], the GI50 [1] is reported as > 100 µM (inactive), the GI50 [2] is reported as > 100 µM (inactive) and the GI50 [3] is reported as > 100 µM (inactive). For the same molecule, the GI50 [4] was > 100 µM (inactive), the GI50 [6] was 75.9 µM (inactive) and the GI50 [7] was 17.9 µM (inactive). The GI50 [8] was > 100 µM (inactive), the GI50 [9] was 50.4 µM (inactive) and the GI50 [10] was 57.5 µM (inactive). The GI50 [11] was > 100 µM (inactive), the GI50 [12] was 43.6 µM (inactive) and the GI50 [13] was 60.1 µM (inactive). The GI50 [14] was greater than 100 µM, the GI50 [15] was 24.4 µM (inactive) and the GI50 [16] was > 100 µM (inactive). The GI50 [17] was > 100 µM (inactive), the GI50 [19] was 32 µM (inactive) and the GI50 [20] was > 100 µM (inactive). The GI50 [21] was 78.2 µM (inactive), the GI50 [22] was 54.6 µM (inactive) and the GI50 [23] was 77.4 µM (inactive). For the same molecule, the GI50 [24] was 77.3 µM (inactive), the GI50 [25] was 37.1 µM (inactive) and the GI50 [26] was 53.8 µM (inactive). The GI50 [27] was 28.7 µM (inactive), the GI50 [28] was 86.5 µM (inactive) and the GI50 [29] was 58.5 µM (inactive). The GI50 [30] was > 100 µM (inactive), the GI50 [31] was 85.5 µM (inactive) and the GI50 [32] was > 100 µM (inactive). For the same molecule, the GI50 [33] was 28.8 µM (inactive), the GI50 [34] was 44.7 µM (inactive) and the GI50 [36] was > 100 µM (inactive). The GI50 [37] was > 100 µM (inactive), the GI50 [38] was 32.2 µM (inactive) and the GI50 [39] was > 100 µM (inactive). The GI50 [41] was > 100 µM (inactive), the GI50 [42] was > 100 µM (inactive) and the GI50 [43] was 62.8 µM (inactive). The GI50 [44] was 48.6 µM (inactive), the GI50 [45] was 20.3 µM (inactive) and the GI50 [46] was > 100 µM (inactive). For the same molecule, the GI50 [47] was > 100 µM (inactive), the GI50 [48] was 66.8 µM (inactive) and the GI50 [49] was 37.1 µM (inactive). The GI50 [50] was 52.4 µM (inactive), the GI50 [51] was 48.6 µM (inactive) and the GI50 [52] was 80 µM (inactive). For the same molecule, the GI50 [53] was 77.8 µM (inactive), the GI50 [54] was 45.5 µM (inactive) and the GI50 [55] was 28.2 µM (inactive). For the same molecule, the GI50 [56] was 37.2 µM (inactive), the GI50 [57] was > 100 µM (inactive) and the GI50 [58] was 44 µM (inactive).
